Data published in patent US12410153B2, “Compounds, compositions and methods” (Avalo Therapeutics, Inc., priority 2014, dated 2025).

How the values were obtained:
[1] = test system: systemic blood pressure and heart rate; test: Blood pressure profile in chronically instrumented (telemetered) rats; assay type: in vivo, rat
Method: A single oral gavage dose was administered (volume: 5 mL/kg). […] Following the completion of the Latin square, two additional dose concentrations were evaluated (0.6 and 10 mg/kg, n=3 per group).
All IV doses were administered in manually restrained rats via tail vena-puncture. It should be noted that vehicle controls were also administered.
A 24-hour recording was performed prior to dosing (vehicle alone) and after each oral dose.

[2] = patients with TRMDD; Ibrahim et al. 2012; cited from earlier work
[3] = Repeated once-daily oral dosing with food (Days 1-7) in healthy subjects, PK and PD; assay type: in vivo, human; settings: oral doses up to 20 mg
Method: A randomized, double-blind, placebo-controlled, parallel-dose group in-patient study is conducted to investigate the pharmacodynamic (PD) effects of crystalline Form II of Compound (I) in healthy subjects.
The study is designed as a three-part, sequential study. The sequential nature of the study ensures that a range of doses are investigated first in a young, healthy population (Part 1) before proceeding to higher doses in the healthy population and the comparator populations (intermediate age and elderly) (Parts 2 and 3). For the purposes of this study, “young” refers to a subject who is 18 to 45 years of age, “intermediate age” refers to a subject who is 46 to 64 years of age, and “elderly” refers to a subject who is 65 years of age or older.
After a screening period of up to 21 days (Days −23 to −3), 16 healthy, young male and female subjects are randomly assigned to a dose group as shown in Table 9.
Each parallel dose group is balanced for gender (approximately equal number of males and females). The randomized subjects are domiciled from Day −1 through Day 8. On Day −1, the subjects receive placebo tablets in the fed state and undergo ambulatory blood pressure monitoring (ABPM) and safety assessments to establish time-matched baselines. On Days 1-7, the subjects receive the study drug in the fed state and undergo safety, pharmacokinetic (PK) and pharmacodynamics (PD) assessments. On Days 8-11, follow-up PK and safety assessments are performed.
Safety assessments include Clinician-Administered Dissociative States Scale (CADSS), Columbia-Suicide Severity Rating Scale (C-SSRS), concomitant medication, adverse event (AE) and vital sign assessments. In PK assessments, blood samples are taken and analyzed to determine PK parameters such as Cmax, Tmax, AUC0-24, and t1/2. PD assessments include ABPM, plasma brain-derived neurotrophic factor (BDNF) measurements, and Profile of Mood States (POMS) assessments.
After a screening period of up to 21 days (Days −23 to −3), 16 subjects (8 healthy, young male and female subjects, and 8 healthy, intermediate age male and female subjects) are randomly assigned to a dose group as shown in Table 10.
After a screening period of up to 21 days (Days −23 to −3), 16 subjects (8 healthy, young male and female subjects, and 8 healthy, elderly male and female subjects) are randomly assigned to a dose group as shown in Table 11.

Sprague-Dawley rats [4] = test: Acute depression model, forced swim test; assay type: in vivo, rat; settings: 20 mg/kg vs vehicle
Method: Young, adult, male Sprague-Dawley rats were randomly assigned across the treatment groups and were administered vehicle (0.5% MC/0.02% SLS), the reference compound desipramine (20 mg/kg; a tricyclic antidepressant; Sigma, Lot #078K1326) dissolved in sterile water, or crystalline Form II of Compound (I) (0.1, 0.3, 1, 3, 10, and 30 mg/kg) suspended in 0.5% MC/0.02% SLS, twice on Day 1 (after habituation; ˜24 h prior to test, and prior to dark cycle) and once on Day 2 (30 min pre-test for desipramine and 45 min pre-test for Form II and vehicle).
Each Forced Swim chamber was constructed of clear acrylic (height, 40 cm; diameter, 20.3 cm). Rats were subjected to a pre-dose swim test of one 15-min session in cylinders containing water at 23° C.±1° C., followed approximately 24 h later by the experimental 5-min session. The water level was 16 cm deep during habituation and 30 cm deep during the test. Immobility, climbing, and swimming behaviors were recorded every 5 s for a total of 60 counts per subject. When an animal was unable to maintain a posture with its nose above water, it was immediately removed from the water and eliminated from the study. Blood was collected at the completion of swim test procedures and plasma was analyzed for Form II concentrations.

[5] = Polymorph stability (slurry and heating, XRPD); assay type: physicochemical; settings: heating to 115° C.
Method: Crystalline Form II of Compound (I) was characterized using X-ray powder diffraction (XRPD) (FIG. 1A). The XRPD pattern corresponds to an anhydrous form denoted as Form II, which is highly crystalline. In addition to Form II, Compound (I) can exist as another anhydrous polymorph, denoted as Form I. The XRPD patterns of these phases are shown in FIG. 1B. A slurry experiment was performed at room temperature by adding approximately equal proportions of the two anhydrous phases to methyl-tert-butyl ether.

Sprague-Dawley rats [6] = test: Rat forced swim test 24 hours after administration; assay type: in vivo; settings: 10 mg/kg, i.p., 24 hours before test, p<0.05
Method: This study aimed to evaluate the duration of the antidepressant-like effects of Form II of Compound (I) using the forced swim test in male, Sprague-Dawley rats. Clinically effective antidepressant compounds reduce immobility time and increase swimming in rodents subjected to this test. Rats received Compound (I) (10 mg/kg, p.o.) or ketamine (10 mg/kg, i.p.) and 24 hours later were subjected to testing. […] The data represent mean±SEM.

[7] = 1 mg/kg IV bolus, blocker alone

With `Cc1ccc(COC(=O)N2CC[C@H](CNc3ncccn3)[C@H](F)C2)cc1` [Compound (I), 4-methylbenzyl (3S, 4R)-3-fluoro-4-[(pyrimidin-2-ylamino)methyl] piperidine-1-carboxylate] the heart rate ([1]; 0.3 and 0.6 mg/kg oral) was “modestly increased heart rate”, the heart rate ([1]; between 1 and 10 mg/kg oral) was “increased HR dose proportionally” and the “magnitude of change in hemodynamics compared with MK-801 (0.2 mg/kg IV)” value ([1]; oral 0.3-10 mg/kg) was “significantly less than that of MK-801”. The arterial blood pressure ([1]; oral, dose-dependent between 0.3-1 mg/kg, plateaued at 1-10 mg/kg) was “increased arterial blood pressure transiently”, the “HAM-D17 and Beck Depression Inventory (BDI)” value [2] was “showed antidepressant effects” and the “heart rates in human studies” value [3] was “have not been observed to increase to any significant degree”. The “primary hemodynamic observation in human studies” value [3] was “transient increase in systolic and diastolic blood pressure”.

For `CNCCCN1c2ccccc2CCc2ccccc21` [Desipramine, reference compound], the swimming behavior (Sprague-Dawley rats [4]) was “no change”, the immobility (Sprague-Dawley rats [4]; P<0.001) was “significantly decreased” and the climbing behavior (Sprague-Dawley rats [4]; P<0.01) was “significantly increased”.

For `Cc1ccc(COC(=O)N2CC[C@H](CNc3ncccn3)[C@H](F)C2)cc1` [Form I, 4-methylbenzyl (3S, 4R)-3-fluoro-4-[(pyrimidin-2-ylamino)methyl] piperidine-1-carboxylate], the “phase change on heating (XRPD of recovered solids)” value [5] was “phase conversion to Form II”.

For `CC(C)NCC(O)COc1ccc(CC(N)=O)cc1` (stereo not drawn) [atenolol, reference compound], the HR change [1, 7] was −87±11 bpm and the MAP change [1, 7] was −3.3±3.1 mmHg.

For `CNC1(c2ccccc2Cl)CCCCC1=O` (stereo not drawn) [ketamine, reference compound], the immobility (Sprague-Dawley rats [6]) was “reduced immobility” and the swim time (Sprague-Dawley rats [6]) was “increased swim time significantly”.
